The assay concerns the target human orexin-2 receptor (Homo sapiens (Human), UniProt O43614). As to the kind of experiment: FLIPR Ca2+ Flux Assay, orexin-2 receptor. Conditions: CHO cells expressing the human orexin-2 receptor; agonist 70 pM Ala-6,12 human orexin-A; read-out: hOX2 FLIPR IC50. The format is cell-based. The method, then:
In a typical experiment the OX1 and OX2 receptor antagonistic activity of the compounds of the present invention was determined in accordance with the following experimental method. For intracellular calcium measurements, Chinese hamster ovary (CHO) cells expressing the rat orexin-1 receptor or the human orexin-2 receptor, are grown in Iscove's modified DMEM containing 2 mM L-glutamine, […], 1% hypoxanthine-thymidine supplement, 100 U/ml penicillin, 100 μg/ml streptomycin and 10% heat-inactivated fetal calf serum (FCS). The cells are seeded at 20,000 cells/well into Becton-Dickinson black 384-well clear bottom sterile plates coated with poly-D-lysine. All reagents are from GIBCO-Invitrogen Corp. The seeded plates are incubated overnight at 37° C. and 5% CO2. Ala-6,12 human orexin-A as the agonist is prepared as a 1 mM stock solution in 1% bovine serum albumin (BSA) and diluted in assay buffer (HBSS containing 20 mM HEPES, 0.1% BSA and 2.5 mM probenecid, pH7.4) for use in the assay at a final concentration of 70 pM. Test compounds are prepared as 10 mM stock solution in DMSO, then diluted in 384-well plates, first in DMSO, then assay buffer. On the day of the assay, cells are washed 3 times with 100 μl assay buffer and then incubated for 60 min (37° C., 5% CO2) in 60 μl assay buffer containing 1 μM Fluo-4AM ester, 0.02% pluronic acid, and 1% BSA. The dye loading solution is then aspirated and cells are washed 3 times with 100 μl assay buffer. 30 μl of that same buffer is left in each well. Within the Fluorescent Imaging Plate Reader (FLIPR, Molecular Devices), test compounds are added to the plate in a volume of 25 μl, incubated for 5 min and finally 25 μl of agonist is added. Fluorescence is measured for each well at 1 second intervals for 5 minutes and the height of each fluorescence peak is compared to the height of the fluorescence peak induced by 70 pM Ala-6,12 orexin-A with buffer in place of antagonist. […] The intrinsic orexin receptor antagonist activity of a compound which may be used in the present invention may be determined by these assays.
On the technique in general: Calcium flux is commonly read through the fluorescence of an indicator in the cells.
Sequence of human orexin-2 receptor (O43614 whole entry): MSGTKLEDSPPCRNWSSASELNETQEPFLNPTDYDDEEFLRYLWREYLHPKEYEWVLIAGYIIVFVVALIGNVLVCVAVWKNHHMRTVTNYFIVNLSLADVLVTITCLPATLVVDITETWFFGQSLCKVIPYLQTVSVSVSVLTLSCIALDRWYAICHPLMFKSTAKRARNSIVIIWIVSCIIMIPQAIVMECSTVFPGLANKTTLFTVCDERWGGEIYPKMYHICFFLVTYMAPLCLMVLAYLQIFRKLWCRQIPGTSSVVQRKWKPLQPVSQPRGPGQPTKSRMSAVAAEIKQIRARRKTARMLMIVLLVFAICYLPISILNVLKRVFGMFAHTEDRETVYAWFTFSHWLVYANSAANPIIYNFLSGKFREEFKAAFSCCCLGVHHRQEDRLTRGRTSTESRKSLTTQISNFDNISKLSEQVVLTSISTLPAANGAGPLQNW
For the compound `CCOc1ccccc1C(=O)N1C[C@H](c2cc(C(C)(C)O)no2)CC[C@H]1C` [Example 31, 2-(5-{(3R,6R)-1-[(2-Ethoxyphenyl)carbonyl]-6-methylpiperidin-3-yl}isoxazol-3-yl)propan-2-ol], the IC50 turned out to be 178 nM.
Next, `C[C@@H]1CC[C@@H](c2cc(C(C)(C)O)no2)CN1C(=O)c1ccccc1-n1ncnn1` [Example 32, 2-{5-[(3R,6R)-6-Methyl-1-{[2-(2H-tetrazol-2-yl)phenyl]carbonyl}piperidin-3-yl]isoxazol-3-yl}propan-2-ol]: 124 nM.
Take `C[C@@H]1CC[C@@H](c2cc(C(C)(C)O)no2)CN1C(=O)c1cccnc1-c1ccccc1` [Example 33, 2-(5-{(3R,6R)-6-Methyl-1-[(2-phenylpyridin-3-yl)carbonyl]piperidin-3-yl}isoxazol-3-yl)propan-2-ol]: the IC50 worked out at 134 nM.
Next, `C[C@@H]1CC[C@@H](c2cc(C(C)(C)O)no2)CN1C(=O)c1ncccc1-c1ccccc1` [Example 34, 2-(5-{(3R,6R)-6-Methyl-1-[(3-phenylpyridin-2-yl)carbonyl]piperidin-3-yl}isoxazol-3-yl)propan-2-ol]: 264 nM; `C[C@@H]1CC[C@@H](c2cc(C(C)(C)O)no2)CN1C(=O)c1ccccc1OCC(F)F` [Example 35, 2-{5-[(3R,6R)-1-{[2-(2,2-Difluoroethoxy)phenyl]carbonyl}-6-methylpiperidin-3-yl]isoxazol-3-yl}propan-2-ol]: 140 nM; `C[C@@H]1CC[C@@H](c2cc(C(C)(C)O)no2)CN1C(=O)c1ccccc1OCC(F)(F)F` [Example 36, 2-{5-[(3R,6R)-6-Methyl-1-{[2-(2,2,2-trifluoroethoxy)phenyl]carbonyl}piperidin-3-yl]isoxazol-3-yl}propan-2-ol]: 212 nM.
Next, `C[C@@H]1CC[C@@H](c2cc(C(C)(C)O)no2)CN1C(=O)c1ccccc1-c1cnccn1` [Example 37, 2-(5-{(3R,6R)-6-Methyl-1-[(2-pyrazin-2-ylphenyl)carbonyl]piperidin-3-yl}isoxazol-3-yl)propan-2-ol]: 1030 nM.
The figure for `C[C@@H]1CC[C@@H](c2cc(C(C)(C)O)no2)CN1C(=O)c1ccccc1C1CC1(F)F` (stereo partly drawn) [Example 38, 2-{5-[(3R,6R)-1-{[2-(2,2-Difluorocyclopropyl)phenyl]carbonyl}-6-methylpiperidin-3-yl]isoxazol-3-yl}propan-2-ol] is 52.4 nM; for `CC[C@@H]1CC[C@@H](c2cc(C(C)(C)O)no2)CN1C(=O)c1ccccc1-n1nccn1` [Example 39, 2-{5-[(3R,6R)-6-Ethyl-1-{[2-(2H-1,2,3-triazol-2-yl)phenyl]carbonyl}piperidin-3-yl]isoxazol-3-yl}propan-2-ol] it is 42.4 nM.
On to `C[C@@H]1CC[C@@H](c2cc([C@@H](O)C(F)(F)F)no2)CN1C(=O)c1ccccc1-n1nccn1` [Example 40, (1R)-2,2,2-Trifluoro-1-{5-[(3R,6R)-6-methyl-1-{[2-(2H-1,2,3-triazol-2-yl)phenyl]carbonyl}piperidin-3-yl]isoxazol-3-yl}ethanol], for which the IC50 is 11 nM.
The figure for `C[C@@H]1CC[C@@H](c2cc([C@H](O)C(F)(F)F)no2)CN1C(=O)c1ccccc1-n1nccn1` [Example 41, (1S)-2,2,2-trifluoro-1-{5-[(3R,6R)-6-methyl-1-{[2-(2H-1,2,3-triazol-2-yl)phenyl]carbonyl}piperidin-3-yl]isoxazol-3-yl}ethanol] is 17.5 nM.
Next, `C[C@@H]1CC[C@@H](c2cc([C@@H](O)C(F)(F)F)no2)CN1C(=O)c1ccsc1-n1nccn1` [Example 42, (1R)-2,2,2-Trifluoro-1-{5-[(3R,6R)-6-methyl-1-{[2-(2H-1,2,3-triazol-2-yl)thiophen-3-yl]carbonyl}piperidin-3-yl]isoxazol-3-yl}ethanol]: 154 nM.
The figure for `C[C@@H]1CC[C@@H](c2cc([C@H](O)C(F)(F)F)no2)CN1C(=O)c1ccsc1-n1nccn1` [Example 43, (1S)-2,2,2-trifluoro-1-{5-[(3R,6R)-6-methyl-1-{[2-(2H-1,2,3-triazol-2-yl)thiophen-3-yl]carbonyl}piperidin-3-yl]isoxazol-3-yl}ethanol] is 162 nM.
On to `C[C@@H]1CC[C@@H](c2cc([C@@H](O)C(F)(F)F)no2)CN1C(=O)c1ccccc1C1(C#N)CC1` [Example 44, 1-(2-{[(2R,5R)-2-Methyl-5-{3-[(1R)-2,2,2-Trifluoro-1-hydroxyethyl]isoxazol-5-yl}piperidin-1-yl]carbonyl}phenyl)cyclopropanecarbonitrile], for which the IC50 is 26.8 nM.
The figure for `C[C@@H]1CC[C@@H](c2cc([C@H](O)C(F)(F)F)no2)CN1C(=O)c1ccccc1C1(C#N)CC1` [Example 45, 1-(2-{[(2R,5R)-2-Methyl-5-{3-[(1S)-2,2,2-trifluoro-1-hydroxyethyl]isoxazol-5-yl}piperidin-1-yl]carbonyl}phenyl)cyclopropanecarbonitrile] is 41.2 nM; for `C[C@@H]1CC[C@@H](c2cc([C@@H](O)C(F)(F)F)no2)CN1C(=O)c1ccccc1-n1ncnn1` [Example 46, (1R)-2,2,2-Trifluoro-1-{5-[(3R,6R)-6-methyl-1-{[2-(2H-tetrazol-2-yl)phenyl]carbonyl}piperidin-3-yl]isoxazol-3-yl}ethanol] it is 356 nM; for `C[C@@H]1CC[C@@H](c2cc([C@H](O)C(F)(F)F)no2)CN1C(=O)c1ccccc1-n1ncnn1` [Example 47, (1S)-2,2,2-Trifluoro-1-{5-[(3R,6R)-6-methyl-1-{[2-(2H-tetrazol-2-yl)phenyl]carbonyl}piperidin-3-yl]isoxazol-3-yl}ethanol] it is 328 nM.
The figure for `C[C@@H]1CC[C@@H](c2cc([C@H](O)C(F)(F)F)no2)CN1C(=O)c1ccsc1-c1ncccn1` [Example 48, (1S)-2,2,2-Trifluoro-1-(5-{(3R,6R)-6-methyl-1-[(2-pyrimidin-2-ylthiophen-3-yl)carbonyl]piperidin-3-yl}isoxazol-3-yl)ethanol] is 113 nM.
Regarding `C[C@@H]1CC[C@@H](c2cc([C@@H](O)C(F)(F)F)no2)CN1C(=O)c1ccsc1-c1ncccn1` [Example 49, (1R)-2,2,2-Trifluoro-1-(5-{(3R,6R)-6-methyl-1-[(2-pyrimidin-2-ylthiophen-3-yl)carbonyl]piperidin-3-yl}isoxazol-3-yl)ethanol], the IC50 amounted to 112 nM.
Next, `C[C@@H]1CC[C@@H](c2cc([C@@H](O)C(F)(F)F)no2)CN1C(=O)c1ccccc1-c1ncccn1` [Example 50, (1R)-2,2,2-Trifluoro-1-(5-{(3R,6R)-6-methyl-1-[(2-pyrimidin-2-ylphenyl)carbonyl]piperidin-3-yl}isoxazol-3-yl)ethanol]: 110 nM; `C[C@@H]1CC[C@@H](c2cc([C@H](O)C(F)(F)F)no2)CN1C(=O)c1ccccc1-c1ncccn1` [Example 51, (1S)-2,2,2-trifluoro-1-(5-{(3R,6R)-6-methyl-1-[(2-pyrimidin-2-ylphenyl)carbonyl]piperidin-3-yl}isoxazol-3-yl)ethanol]: 146 nM.
The figure for `CCC(C)(O)c1cc([C@@H]2CC[C@@H](C)N(C(=O)c3ccccc3-n3nccn3)C2)on1` (stereo partly drawn) [Example 54, 2-{5-[(3R,6R)-6-Methyl-1-{[2-(2H-1,2,3-triazol-2-yl)phenyl]carbonyl}piperidin-3-yl]isoxazol-3-yl}butan-2-ol] is 76.1 nM.

As a reminder, the IC50 is the point on the concentration scale where inhibition reaches its midpoint.

Source of the values: US10017504B2, “Piperidine isoxazole and isothiazole orexin receptor antagonists” (MERCK SHARP & DOHME CORP., priority 2014, dated 2018).
